melting point	Structure (SMILES)
268 to 271 °C	COc1ccc(C(=O)C2=C(O)C(=O)N(c3ccc(C(=O)O)cc3)C2c2ccccc2)cc1 (stereo not drawn) [Example I-87]
173 to 174 °C	COc1ccc(C(=O)C2=C(OCc3ccccc3)C(=O)N(c3ccc(C(F)(F)F)cc3)C2c2ccccc2)cc1 (stereo not drawn) [Example I-217]
253 to 256 °C (dec.)	COc1ccc(C(=O)C2=C(O)C(=O)N(c3ccc(C(F)(F)F)cc3)C2c2ccc(F)cc2)cc1 (stereo not drawn) [Example I-34]
233 to 236 °C	COc1ccc(C(=O)C2=C(O)C(=O)N(c3ccc(Br)cc3)C2c2ccccc2)cc1 (stereo not drawn) [Example I-237]
229 to 230 °C	CC(C)(C)C1=NCCNC2=C1C(C1CCCCC1)N(c1ccc(-c3ccon3)cc1)C2=O (stereo not drawn) [Example I-230]
268 to 270 °C (dec.)	COc1ccc(C(=O)C2=C(O)C(=O)N(c3ccc(-c4ccon4)cc3)C2c2ccc(Cl)cc2)cc1 (stereo not drawn) [Example I-11]
160 to 161 °C	CCOC(=O)c1ccc(N2C(=O)C(O)=C(Cc3ccccc3)C2c2ccc(OC)cc2)cc1 (stereo not drawn) [Example I-203]
136 to 137 °C	COC1=C(C(=O)C(C)(C)C)C(c2ccccc2OC)N(c2ccc(-c3ccon3)cc2)C1=O (stereo not drawn) [II-156]
269 to 274 °C (dec.)	COc1ccc(C(=O)C2C(=O)C(=O)N(c3ccc(-c4ccon4)cc3)C2c2ccc(F)cc2)cc1 (stereo not drawn) [Example I-18]
253 to 254 °C	COc1ccc(C(=O)C2C(=O)C(=O)N(c3ccc(-c4cnco4)cc3)C2c2ccccc2)cc1 (stereo not drawn) [Example I-78]
202 °C	COc1ccccc1C1c2c(C(C)(C)C)n[nH]c2C(=O)N1c1cccc(-c2ccon2)c1 (stereo not drawn) [II-8]
196 to 201 °C	CCOC(=O)c1ccc(N2C(=O)C(OCc3ccccc3)=C(C(=NO)c3ccc(OC)cc3)C2c2ccccc2)cc1 (stereo not drawn) [Example I-225]
241 to 244 °C	COc1ccc(C(=O)C2=C(O)C(=O)N(c3ccc(-c4ccon4)cc3)C2C(C)c2ccccc2)cc1 (stereo not drawn) [Example I-221]
244 to 247 °C	COc1ccc(C(=O)C2=C(O)C(=O)N(c3ccc(-c4nnco4)cc3)C2c2ccc(F)cc2)cc1 (stereo not drawn) [Example I-213]
232 to 235 °C	CO/N=C/c1ccc(N2C(=O)C(O)=C(C(=O)c3ccc(OC)cc3)C2c2ccc(F)cc2)cc1 (stereo not drawn) [Example I-209]
259 to 260 °C	CC(C)(C)C(=O)C1=C(O)C(=O)N(c2ccc(-c3ccon3)cc2)C1C1CCCCC1 (stereo not drawn) [Example I-32, 5-cyclohexyl-4-(2,2-dimethylpropionoyl)-3-hydroxy-1-(4-isoxazol-3-ylphenyl)-1,5-dihydropyrrol-2-one]
271 to 274 °C	COc1ccc(C(=O)C2=C(O)C(=O)N(c3ccc(-c4ccon4)cc3)C2c2ccccc2)cc1 (stereo not drawn) [Example I-50]
213 to 215 °C	COc1ccc(C2=NCCNC3=C2C(c2ccc(F)cc2)N(c2ccc(C(F)(F)F)cc2)C3=O)cc1 (stereo not drawn) [Example I-229]
> 290 °C	CCC(CC)C1C(C(=O)c2ccc(=O)[nH]c2)=C(O)C(=O)N1c1ccc(-c2ccon2)cc1 (stereo not drawn) [Example I-208]
245 to 246 °C	CC(C)(C)c1n[nH]c2c1C(C1CCCCC1)N(c1ccc(C(F)(F)F)cc1)C2=O (stereo not drawn) [Example I-194]
236 to 239 °C	COc1ccc(C(=O)C2=C(O)C(=O)N(c3ccc(-c4noc(C)n4)cc3)C2c2ccc(F)cc2)cc1 (stereo not drawn) [Example I-14]
193 to 196 °C	COc1ccc(C(=O)C2=C(O)C(=O)N(c3cccc(-c4ccon4)c3)C2c2ccc(F)cc2)cc1 (stereo not drawn) [Example I-185]
> 290 °C	CCC(CC)C1c2c(-c3ccc(=O)[nH]c3)n[nH]c2C(=O)N1c1ccc(-c2ccon2)cc1 (stereo not drawn) [Example I-198, 4-(1-ethylpropyl)-5-(4-isoxazol-3-ylphenyl)-3-(6-oxo-1,6-dihydropyridin-3-yl)-4,5-dihydro-1H-pyrrolo[3,4-c]pyrazol-6-one]
223 to 225 °C	CCC(CC)C1C(C(=O)c2ccc(OC)cc2)=C(O)C(=O)N1c1ccc(-c2noc(C)n2)cc1 (stereo not drawn) [Example I-232]
164 to 166 °C	COc1ccc(-c2n[nH]c3c2C(c2ccc(F)cc2)N(c2ccc(-c4ccon4)cc2)C3=O)cc1 (stereo not drawn) [Example I-210]
273 to 274 °C (dec.)	COc1ccc(C(=O)C2=C(O)C(=O)N(c3ccc(-c4ccon4)cc3)C2c2cccc(F)c2)cc1 (stereo not drawn) [Example I-26, 5-(3-fluorophenyl)-3-hydroxy-1-(4-isoxazol-3-ylphenyl)-4-(4-methoxybenzoyl)-1,5-dihydropyrrol-2-one]
238 to 240 °C	COc1ccc(C(=O)C2=C(O)C(=O)N(c3ccc(-c4ccon4)cc3)C2c2cccc(OC)c2)cc1 (stereo not drawn) [Example I-46]

melting point	Structure (SMILES)
207 to 210 °C	CCCCC(CCCC)C1C(C(=O)c2ccc(OC)cc2)=C(O)C(=O)N1c1ccc(-c2ccon2)cc1 (stereo not drawn) [Example I-215]
270 to 271 °C (dec.)	COc1ccc(C(=O)C2=C(O)C(=O)N(c3ccc(-c4ccon4)cc3)C2c2ccccc2F)cc1 (stereo not drawn) [Example I-31]
245 to 247 °C	COc1ccc(C(=O)C2=C(O)C(=O)N(c3ccc(OC)cc3)C2c2ccc(F)cc2)cc1 (stereo not drawn) [Example I-238]
247 to 249 °C	COc1ccc(C(=O)C2=C(O)C(=O)N(c3ccc(-c4ccon4)cc3)C2C2CCN(C(=O)OC(C)(C)C)CC2)cc1 (stereo not drawn) [Example I-222]
245 to 246 °C	COc1ccc(C(=O)C2C(=O)C(=O)N(c3ccc(-c4cnco4)cc3)C2c2ccc(F)cc2)cc1 (stereo not drawn) [Example I-64]
230 to 233 °C	CCC(CC)C1C(C(=O)c2ccc(OC)cc2)=C(O)C(=O)N1c1ccc(C2=NCCS2)cc1 (stereo not drawn) [Example I-234]
226 to 228 °C	CCC(CC)C1c2c(-c3ccc(OC)nc3)n[nH]c2C(=O)N1c1ccc(-c2ccon2)cc1 (stereo not drawn) [Example I-211]
197 to 204 °C	COc1ccc(C(=NO)C2=C(OCc3ccccc3)C(=O)N(c3ccc(C(F)(F)F)cc3)C2c2ccccc2)cc1 (stereo not drawn) [Example I-250]
217 to 218 °C	COc1ccc(-c2n[nH]c3c2C(c2ccc(F)cc2)N(c2ccc(C(F)(F)F)cc2)C3=O)cc1 (stereo not drawn) [Example I-228]
238 to 240 °C	COc1ccc(C(=O)C2=C(O)C(=O)N(c3ccc(-c4ccon4)cc3)C2c2cccc(Cl)c2)cc1 (stereo not drawn) [Example I-27]
177 to 178 °C	COc1ccc(C2C(Cc3ccccc3)=C(O)C(=O)N2c2ccc(F)cc2)cc1 (stereo not drawn) [Example I-202]
234 to 237 °C	COc1ccc(C(=O)C2=C(O)C(=O)N(Cc3ccc(C(F)(F)F)cc3)C2c2ccc(F)cc2)cc1 (stereo not drawn) [Example I-204]
254 to 258 °C (dec.)	COc1ccc(C(=O)C2C(=O)C(=O)N(c3ccc(-c4ccon4)cc3)C2c2ccccc2Cl)cc1 (stereo not drawn) [Example I-40]
229 to 232 °C	COc1ccc(C(=O)C2=C(O)C(=O)N(c3ccc(C4=NCCS4)cc3)C2c2ccc(F)cc2)cc1 (stereo not drawn) [Example I-216]
232 to 234 °C	COc1ccc(C(=O)C2=C(O)C(=O)N(c3ccc(-c4ccon4)cc3)C2c2ccccn2)cc1 (stereo not drawn) [Example I-236]
247 to 250 °C	COc1ccc(C(=O)C2=C(O)C(=O)N(c3ccc(C4=NCCS4)cc3)C2C2CCCCC2)cc1 (stereo not drawn) [Example I-233]
238 to 239 °C	CC(C)(C)C(=O)C1=C(O)C(=O)N(c2ccc(C(F)(F)F)cc2)C1C1CCCCC1 (stereo not drawn) [Example I-56]
249 to 252 °C	COc1ccc(C(=O)C2=C(O)C(=O)N(c3ccc(-c4cc(C)no4)cc3)C2c2ccc(F)cc2)cc1 (stereo not drawn) [Example I-219]
219 to 221 °C (dec.)	CCOC(=O)c1ccc(N2C(=O)/C(=N\O)C(/C(=N\O)c3ccc(OC)cc3)C2c2ccccc2)cc1 (stereo not drawn) [Example I-226]
229 to 231 °C	CCCC(CCC)C1C(C(=O)c2ccc(OC)cc2)=C(O)C(=O)N1c1ccc(-c2ccon2)cc1 (stereo not drawn) [Example I-220]
255 to 256 °C	CC(C)(C)C(=O)C1/C(=N/O)C(=O)N(c2ccc(-c3ccon3)cc2)C1C1CCCCC1 (stereo not drawn) [Example I-193]
268 to 272 °C	COc1ccc(C(=O)C2=C(O)C(=O)N(c3ccc(-c4ccon4)cc3)C2C2CCOCC2)cc1 (stereo not drawn) [Example I-224]
221 to 224 °C	CO/N=C(\C)c1ccc(N2C(=O)C(O)=C(C(=O)c3ccc(OC)cc3)C2c2ccc(F)cc2)cc1 (stereo not drawn) [Example I-227]
245 to 248 °C	COc1ccc(C(=O)C2=C(O)C(=O)N(c3ccc(-c4noc(C)n4)cc3)C2C2CCCCC2)cc1 (stereo not drawn) [Example I-231]
227 to 232 °C	CCCC(C)C1C(C(=O)c2ccc(OC)cc2)=C(O)C(=O)N1c1ccc(-c2ccon2)cc1 (stereo not drawn) [Example I-214]
245 to 247 °C	COc1ccc(C(=O)C2C(=O)C(=O)N(c3ccc(OC)cc3)C2c2ccc(F)cc2)cc1 (stereo not drawn) [Example I-73]
246 to 249 °C	CCC(CC)C1C(C(=O)c2ccc(OC)nc2)=C(O)C(=O)N1c1ccc(-c2ccon2)cc1 (stereo not drawn) [Example I-207]
